According to patent US5441973A, “N-acyl-4-phenyl-pyrrolidin-2-ones and method for preparing” (Arzneimittelwerk Dresden G.m.b.H., priority 1990, dated 1995):

Assay: not given
Conditions: from prior patents / known; cited from earlier work

Question: For `O=C1CC(c2ccc(Cl)cc2)CN1` (stereo not drawn) [4-(4-chlorophenyl)-pyrrolidin-2-one], which “CNS effect reported in prior publications” value (shortened to “CNS effect reported”) is on record?
Answer: anticonvulsive effect

Question: Which “CNS effect reported” value does the source give for `CCCC(CCC)C(=O)O` [dipropylacetic acid] here?
Answer: nootropic effects

Question: For `CCCC(CCC)C(=O)N1CCCC1=O` [N-dipropylacetylpyrrolidin-2-one], which “CNS effect reported” value is on record?
Answer: nootropic effects

Question: For `NC(=O)N1c2ccccc2C=Cc2ccccc21` [carbamazepine], which “CNS effect reported” value is on record?
Answer: nootropic effects

Assay: in vivo
Conditions: mouse, ip

Question: For `O=C(COc1ccc(Cl)cc1)N1CC(c2ccc(Cl)cc2)CC1=O` (stereo not drawn) [compound 5], which LD50 is on record?
Answer: > 2000 mg/kg

Question: For `CCCC(CCC)C(=O)N1CC(c2ccccc2)CC1=O` (stereo not drawn) [compound 1], which LD50 is on record?
Answer: 1630 mg/kg

Question: With `CCCC(CCC)C(=O)O` [Ca-Valproate] as the compound, how does the LD50 read?
Answer: 455 mg/kg

Question: Which LD50 does the source give for `CCOC(=O)C1C(=O)N(C(=O)c2ccc(OC)cc2)CC1c1ccccc1` (stereo not drawn) [compound 6] here?
Answer: > 2000 mg/kg

Question: Which LD50 does the source give for `COc1ccc(C(=O)N2CC(c3ccc(Cl)cc3)CC2=O)cc1` (stereo not drawn) [compound 4] here?
Answer: > 2000 mg/kg

Question: With `CCCC(CCC)C(=O)N1CC(c2ccc(Cl)cc2)CC1=O` (stereo not drawn) [compound 2] as the compound, how does the LD50 read?
Answer: > 2000 mg/kg

Question: Which LD50 does the source give for `COc1ccc(C(=O)N2CC(c3ccccc3)CC2=O)cc1` (stereo not drawn) [compound 3] here?
Answer: > 2000 mg/kg

Question: Which LD50 does the source give for `NC(=O)CN1CCCC1=O` [Piracetam] here?
Answer: > 2000 mg/kg
